This is an account of results in patent US7214669B2, “Tetracycline derivatives and methods of use thereof” (Tetragenex Pharmaceuticals, Inc., priority 2001, dated 2007).

Each structure is given as a SMILES string. Where only a bound is given, the exact number is not on record here.

The term IC50 denotes the midpoint of a concentration-inhibition curve.

Holding throughout (assay type): biochemical
One assay deals with Human recombinant MMP9 (Homo sapiens, UniProt P14780). As to the kind of experiment: MMP9 (Gelatinase B) inhibition, 14C gelatin release. Particulars: 37° C., 16 hours; read-out: MMP-9 inhibitory activity, IC50.
Chain of Human recombinant MMP9 (P14780 94-707): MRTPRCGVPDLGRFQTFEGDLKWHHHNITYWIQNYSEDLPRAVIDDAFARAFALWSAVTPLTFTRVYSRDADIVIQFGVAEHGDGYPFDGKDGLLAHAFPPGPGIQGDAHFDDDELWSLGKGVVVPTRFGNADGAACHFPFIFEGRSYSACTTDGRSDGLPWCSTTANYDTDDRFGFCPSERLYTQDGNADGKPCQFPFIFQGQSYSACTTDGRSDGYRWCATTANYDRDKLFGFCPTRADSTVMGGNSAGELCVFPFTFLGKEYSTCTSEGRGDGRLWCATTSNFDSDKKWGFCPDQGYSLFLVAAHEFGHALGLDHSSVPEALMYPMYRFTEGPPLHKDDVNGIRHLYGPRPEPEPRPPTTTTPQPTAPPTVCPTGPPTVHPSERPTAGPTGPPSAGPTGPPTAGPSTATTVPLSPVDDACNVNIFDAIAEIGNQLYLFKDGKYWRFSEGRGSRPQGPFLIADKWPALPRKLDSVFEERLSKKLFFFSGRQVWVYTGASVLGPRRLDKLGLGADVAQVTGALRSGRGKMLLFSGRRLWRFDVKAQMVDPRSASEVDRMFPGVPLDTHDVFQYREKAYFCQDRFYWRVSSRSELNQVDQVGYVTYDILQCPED
For a further assay, the target named is Human recombinant MMP3 (Homo sapiens, UniProt P08254). As to the kind of experiment: MMP3 (Stromelysin 1) inhibition, 14C casein release. The settings on record: 37° C., 16 hours; read-out: MMP-3 inhibitory activity, IC50.
Chain of Human recombinant MMP3 (P08254 100-477): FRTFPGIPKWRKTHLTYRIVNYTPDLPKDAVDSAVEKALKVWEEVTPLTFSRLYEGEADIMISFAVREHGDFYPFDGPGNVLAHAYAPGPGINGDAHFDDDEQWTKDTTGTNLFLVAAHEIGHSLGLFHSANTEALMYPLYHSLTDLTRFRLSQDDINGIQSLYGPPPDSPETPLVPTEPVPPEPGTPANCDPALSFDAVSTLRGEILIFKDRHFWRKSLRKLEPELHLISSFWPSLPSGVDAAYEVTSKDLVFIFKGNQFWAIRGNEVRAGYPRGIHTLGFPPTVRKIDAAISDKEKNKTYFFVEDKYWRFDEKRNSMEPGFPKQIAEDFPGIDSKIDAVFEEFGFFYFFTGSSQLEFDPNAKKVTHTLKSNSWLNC
A further assay concerns the target T1, Human recombinant MMP1 (Homo sapiens, UniProt P03956).
T1 sequence (P03956 100-469): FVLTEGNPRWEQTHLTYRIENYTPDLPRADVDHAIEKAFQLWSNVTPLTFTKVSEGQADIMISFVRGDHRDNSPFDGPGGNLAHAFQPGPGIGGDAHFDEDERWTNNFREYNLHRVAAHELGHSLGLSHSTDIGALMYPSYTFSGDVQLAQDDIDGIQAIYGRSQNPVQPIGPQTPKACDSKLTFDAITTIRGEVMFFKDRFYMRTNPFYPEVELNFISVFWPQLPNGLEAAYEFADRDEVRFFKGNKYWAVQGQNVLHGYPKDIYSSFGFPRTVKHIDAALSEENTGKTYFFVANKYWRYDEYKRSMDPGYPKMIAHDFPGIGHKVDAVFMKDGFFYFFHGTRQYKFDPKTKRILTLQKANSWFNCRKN
The experiment in a line: MMP1 (Collagenase-1) inhibition, 14C collagen release. The settings on record: 35° C., 5 hours; read-out: MMP-1 inhibitory activity, IC50.

In a further assay the target is T2, MMP2 (Gelatinase A) (Homo sapiens, UniProt P08253).
T2 sequence (P08253 110-660): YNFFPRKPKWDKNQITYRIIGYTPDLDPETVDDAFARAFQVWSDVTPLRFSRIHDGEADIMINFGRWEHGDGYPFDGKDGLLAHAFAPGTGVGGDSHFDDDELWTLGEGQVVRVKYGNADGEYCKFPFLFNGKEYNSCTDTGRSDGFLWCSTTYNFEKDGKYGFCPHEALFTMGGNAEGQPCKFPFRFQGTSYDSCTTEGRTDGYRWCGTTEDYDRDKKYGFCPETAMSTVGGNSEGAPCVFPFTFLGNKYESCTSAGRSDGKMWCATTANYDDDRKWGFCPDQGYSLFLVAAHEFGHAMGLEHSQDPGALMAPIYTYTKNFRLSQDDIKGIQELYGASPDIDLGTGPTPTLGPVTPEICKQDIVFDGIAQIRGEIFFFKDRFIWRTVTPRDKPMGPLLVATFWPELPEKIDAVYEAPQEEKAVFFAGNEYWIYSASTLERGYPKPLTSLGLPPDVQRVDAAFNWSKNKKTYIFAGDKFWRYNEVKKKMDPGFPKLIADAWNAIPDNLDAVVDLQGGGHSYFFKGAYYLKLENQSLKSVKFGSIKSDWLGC
The experiment in a line: MMP2 (Gelatinase A) inhibition, 14C gelatin release. Particulars: 37° C., 16 hours; read-out: MMP-2 inhibitory activity, IC50.

Another assay has as its target Human recombinant MMP14 (Homo sapiens, UniProt P50281). As to the kind of experiment: MMP14 (MTI-MMP) inhibition, 14C collagen release. The settings on record: 35° C., 15 hours; read-out: MMP-14 inhibitory activity, IC50.

Method for Human recombinant MMP3: Protocol for Measuring MMP3 (Stromelysin 1) Inhibition
• 100 μg ^14C casein (7000 dpm) • 50 mM Tris HCl, pH 7.9 • 15 mM CaCl2, 0.02% azide • Human recombinant MMP3, 0.25–1.0 nM • ±tetracycline (up to 1 mM) in a total volume of 250 μl.
Incubations were at 37° C. for 16 hours. The reaction was stopped by the addition of 500 μl cold 18% TCA and standing on ice for 15 minutes. TCA precipitates were removed by centrifugation at 10,000 g for 10 minutes at 4° C. and 200 μl supernatant was taken for scintillation counting. Only data derived from within the linear part of the assay (10–60% lysis) were utilized. The percentage inhibition of MMP3 by each concentration of the candidate tetracycline was plotted to derive the IC50 value, using linear regression analysis.
Method for MMP2 (Gelatinase A): Protocol for Measuring MMP2 (Gelatinase A) Inhibition
MMP2 activity was determined by the release of trichloracetic acid, TCA, soluble fragments from ^14C acetylated rat skin type I gelatin (Methods in Enzymology 248, 470, 1995. Biochem. J. 195, 1981)
• 100 μg ^14C labelled gelatin (type I collagen denatured 60° C. 20 min) • 50 mM Tris HCl pH 7.9 • 15 mM CaCl2, 0.02% azide • Human recombinant MMP1, 0.1–0.5 nM • ±Tetracycline (up to 1 MM) in a total volume of 250 μl.
Incubations were set at 37° C. for 16 hours. The reaction was stopped by cooling the incubations and addition of 50 μl cold 90% (w/v) trichloracetic acid with careful mixing. TCA precipitation was allowed to proceed for 15 minutes at 4° C. prior to cetrifugation at 10,000 g for 10 minutes at 4° C. 200 μl of the TCA supernatant was taken for the determination of radioactive content by scintillation counting (Packard Opti Phase Supermix scintillation fluid). Only data derived from within the linear part of the assay (10–70% lysis) were utilized. The percentage inhibition of MMP2 by each tetracycline concentration was plotted to derive the IC50 value, using linear regression analysis.

For `CCCCN(CCCC)c1ccc(O)c2c1C(C)C1C(=C(O)C3(O)C(=O)C(C(N)=O)=C(O)C(N(C)C)C3C1O)C2=O` (centres unmarked) [Compound 17, 7-Di-n-Butylamino-6-deoxy-5-hydroxytetracycline H2SO4], the IC50 was 110 µM on Human recombinant MMP9; 350 µM at Human recombinant MMP3; 122 µM on Human recombinant MMP1; over 1000 µM at MMP2 (Gelatinase A); 98 µM at Human recombinant MMP14.

Regarding `CCCCCCN(CCCCCC)c1ccc(O)c2c1C(C)C1C(=C(O)C3(O)C(=O)C(C(N)=O)=C(O)C(N(C)C)C3C1O)C2=O` (centres unmarked) [Compound 18, 7-Di-n-Hexylamino-6-deoxy-5-hydroxytetracycline H2SO4], the IC50 on Human recombinant MMP9 was 131 µM; at Human recombinant MMP3, 335 µM; on Human recombinant MMP1, 123 µM; on MMP2 (Gelatinase A) it was 233 µM; at Human recombinant MMP14 it was 102 µM.

`CC1c2c(N(CCC(C)(C)C)CCC(C)(C)C)ccc(O)c2C(=O)C2=C(O)C3(O)C(=O)C(C(N)=O)=C(O)C(N(C)C)C3C(O)C21` (centres unmarked) [Compound 19, 7-Di-(3,3-dimethylbutyl)amino-6-deoxy-5-hydroxytetracycline H2SO4]: the IC50 at Human recombinant MMP9 was 98 µM; on Human recombinant MMP3, 394 µM; at Human recombinant MMP1, 270 µM; on MMP2 (Gelatinase A) it was 925 µM; on Human recombinant MMP14 it was 90 µM.

Take `CC1c2c(N=[N+]=[N-])ccc(O)c2C(=O)C2=C(O)C3(O)C(=O)C(C(N)=O)=C(O)C(N(C)C)C3C(O)C21` (centres unmarked) [Compound 20, 7-Azido-6-deoxy-5-hydroxy-tetracycline H2SO4]: the IC50 on Human recombinant MMP9 was 162 µM; on Human recombinant MMP3, 281 µM; at Human recombinant MMP1, 429 µM; on MMP2 (Gelatinase A), 511 µM; on Human recombinant MMP14, 266 µM.

Take `CC1c2c([N+]#N)ccc(O)c2C(=O)C2=C(O)C3(O)C(=O)C(C(N)=O)=C(O)C(N(C)C)C3C(O)C21` (centres unmarked) [Compound 21, 6-Deoxy-5-hydroxytetracycline-7-diazonium H2SO4]: the IC50 at Human recombinant MMP9 is 79 µM; at Human recombinant MMP3, over 1000 µM; at Human recombinant MMP1, 293 µM; at MMP2 (Gelatinase A), over 1000 µM; at Human recombinant MMP14 it was 115 µM.

As for `CC(=O)Nc1cc([N+](=O)[O-])c(O)c2c1C(C)C1C(=C(O)C3(O)C(=O)C(C(N)=O)=C(O)C(N(C)C)C3C1O)C2=O` (centres unmarked) [Compound 22, 7-Acetamido-9-nitro-6-deoxy-5-hydroxytetracycline H2SO4], the IC50 at Human recombinant MMP9 amounted to 341 µM; at Human recombinant MMP3 it was 462 µM; on Human recombinant MMP1, 396 µM; on MMP2 (Gelatinase A), 254 µM; at Human recombinant MMP14, 459 µM.

For the compound `CC(=O)Nc1ccc(O)c2c1C(C)C1C(=C(O)C3(O)C(=O)C(C(N)=O)=C(O)C(N(C)C)C3C1O)C2=O` (centres unmarked) [Compound 23, 7-Acetamido-6-deoxy-5-hydroxytetracycline H2SO4], the IC50 was over 1000 µM at Human recombinant MMP9; over 1000 µM at Human recombinant MMP3; over 1000 µM at Human recombinant MMP1; 306 µM at MMP2 (Gelatinase A); over 1000 µM at Human recombinant MMP14.

Regarding `CCCN(CCC)c1ccc(O)c2c1C(C)C1C(=C(O)C3(O)C(=O)C(C(N)=O)=C(O)C(N(C)C)C3C1O)C2=O` (centres unmarked) [Compound 24, 7-Di-n-propylamino-6-deoxy-5-hydroxytetracycline H2SO4], the IC50 on Human recombinant MMP9 was 127 µM; on Human recombinant MMP3, 191 µM; on Human recombinant MMP1 it was 405 µM; on MMP2 (Gelatinase A), 724 µM; on Human recombinant MMP14, 160 µM.

On to `CC(C)CNc1ccc(O)c2c1C(C)C1C(=C(O)C3(O)C(=O)C(C(N)=O)=C(O)C(N(C)C)C3C1O)C2=O` (centres unmarked) [Compound 25, 7-Isobutylamino-6-deoxy-5-hydroxytetracycline H2SO4], for which the IC50 was found to be 148 µM at Human recombinant MMP9; 303 µM at Human recombinant MMP3; 974 µM at Human recombinant MMP1; 397 µM at MMP2 (Gelatinase A); 185 µM on Human recombinant MMP14.

In the case of `CC(=O)Nc1cc(N)c(O)c2c1C(C)C1C(=C(O)C3(O)C(=O)C(C(N)=O)=C(O)C(N(C)C)C3C1O)C2=O` (centres unmarked) [Compound 26, 7-Acetamido-9-amino-6-deoxy-5-hydroxytetracycline H2SO4], the IC50 at Human recombinant MMP9 was 384 µM; at Human recombinant MMP3 it was over 1000 µM; at Human recombinant MMP1, over 1000 µM; at MMP2 (Gelatinase A), 413 µM; on Human recombinant MMP14 it was 586 µM.
